Data published in patent US8916554B2, “Amino-derivatives as novel inhibitors of histone deacetylase” (Janssen Pharmaceutica N.V., priority 2002, dated 2014).
In brackets after ≈: the same amount, converted by molar mass. Read-outs that look alike come from different tables or passages of the source.

Legend:
[1] = target: histone deacetylase (HDAC), HeLa nuclear extracts; test: In vitro assay for inhibition of histone deacetylase; assay type: biochemical; parameters: key: pIC50 = negative log of IC50; details: [3H]acetylated histone H4 peptide substrate
Protocol: The in vitro assay for inhibition of histone deacetylase (see example C.1) measures the inhibition of HDAC enzymatic activity obtained with the compounds of formula (I).
HeLa nuclear extracts (supplier: Biomol) were incubated at 60 μg/ml with 2×10^−8 M of radiolabeled peptide substrate. As a substrate for measuring HDAC activity a synthetic peptide, i.e. the amino acids 14-21 of histone H4, was used. The substrate is biotinylated at the NH2-terminal part with a 6-aminohexanoic acid spacer, and is protected at the COOH-terminal part by an amide group and specifically [^3H]acetylated at lysine 16. The substrate, biotin-(6-aminohexanoic)Gly-Ala-([^3H]-acetyl-Lys-Arg-His-Arg-Lys-Val-NH2), was added in a buffer containing 25 mM Hepes, 1 M sucrose, 0.1 mg/ml BSA and 0.01% Triton X-100 at pH 7.4. After 30 min the deacetylation reaction was terminated by the addition of HCl and acetic acid. (final concentration 0.035 mM and 3.8 mM respectively). After stopping the reaction, the free ^3H-acetate was extracted with ethylacetate. After mixing and centrifugation, the radioactivity in an aliquot of the upper (organic) phase was counted in a β-counter.
For each experiment, controls (containing HeLa nuclear extract and DMSO without compound), a blank incubation (containing DMSO but no HeLa nuclear extract or compound) and samples (containing compound dissolved in DMSO and HeLa nuclear extract) were run in parallel. In first instance, compounds were tested at a concentration of 10^−5M. […] In each test the blank value was substracted from both the control and the sample values. The control sample represented 100% of substrate deactylation. For each sample the radioactivity was expressed as a percentage of the mean value of the controls. […] Herein the effects of test compounds are expressed as pIC50 (the negative log value of the IC50-value).

[2] = test system: human A2780 ovarian carcinoma cells; test: Determination of antiproliferative activity on A2780 cells (MTT); assay type: cell-based; details: four days of incubation; for IC50: Homo sapiens, 96 h, read-out: Cellular activity pIC50 (converted)
Protocol: Cellular activity of the compounds of formula (I) was determined on A2780 tumour cells using a colorimetric assay for cell toxicity or survival (Mosmann Tim, Journal of Immunological Methods 65: 55-63, 1983)(see example C.2).
All compounds tested were dissolved in DMSO and further dilutions were made in culture medium. Final DMSO concentrations never exceeded 0.1% (v/v) in cell proliferation assays. Controls contained A2780 cells and DMSO without compound and blanks contained DMSO but no cells. MTT was dissolved at 5 mg/ml in PBS. A glycine buffer comprised of 0.1 M glycine and 0.1 M NaCl buffered to pH 10.5 with NaOH (1 N) was prepared (all reagents were from Merck).
The human A2780 ovarian carcinoma cells (a kind gift from Dr. T. C. Hamilton [Fox Chase Cancer Centre, Pennsylvania, USA]) were cultured in RPMI 1640 medium supplemented with 2 mM L-glutamine, 50 μg/ml gentamicin and 10% fetal calf serum. Cells were routinely kept as monolayer cultures at 37° C. in a humidified 5% CO2 atmosphere. Cells were passaged once a week using a trypsin/EDTA solution at a split ratio of 1:40. All media and supplements were obtained from Life Technologies. Cells were free of mycoplasma contamination as determined using the Gen-Probe Mycoplasma Tissue Culture kit (supplier: BioMérieux).
Cells were seeded in NUNC™ 96-well culture plates (Supplier: Life Technologies) and allowed to adhere to the plastic overnight. Densities used for plating were 1500 cells per well in a total volume of 200 μl medium. After cell adhesion to the plates, medium was changed and drugs and/or solvents were added to a final volume of 200 μl. Following four days of incubation, medium was replaced by 200 μl fresh medium and cell density and viability was assessed using an MTT-based assay. To each well, 25 μl MTT solution was added and the cells were further incubated for 2 hours at 37° C. The medium was then carefully aspirated and the blue MTT-formazan product was solubilized by addition of 25 μl glycine buffer followed by 100 μl of DMSO. […] Within an experiment, the results for each experimental condition are the mean of 3 replicate wells. For initial screening purposes, compounds were tested at a single fixed concentration of 10^−6 M. For active compounds, the experiments were repeated to establish full concentration-response curves. For each experiment, controls (containing no drug) and a blank incubation (containing no cells or drugs) were run in parallel. The blank value was subtracted from all control and sample values. For each sample, the mean value for cell growth (in absorbance units) was expressed as a percentage of the mean value for cell growth of the control. […] Herein the effects of test compounds are expressed as pIC50 (the negative log value of the IC50-value).

[3] = Kinetic solubility in aqueous media; assay type: physicochemical; details: aqueous buffer, kinetic from dmso stock; phosphate citrate buffer pH 7.4, turbidity by nephelometer; read-out: Solubility Score
Protocol: Kinetic solubility in aqueous media measures the ability of a compound to stay in aqueous solution upon dilution (see example C.3).
DMSO-stock solutions are diluted with a single aqueous buffer solvent in 3 consecutive steps. For every dilution turbidity is measured with a nephelometer.
In the first dilution step, 10 μl of a concentrated stock-solution of the active compound, solubilized in DMSO (5 mM), was added to 100 μl phosphate citrate buffer pH 7.4 and mixed. In the second dilution step, an aliquot (20 μl) of the first dilution step was further dispensed in 100 μl phosphate citrate buffer pH 7.4 and mixed. Finally, in the third dilution step, a sample (20 μl) of the second dilution step was further diluted in 100 μl phosphate citrate buffer pH 7.4 and mixed. All dilutions were performed in 96-well plates. Immediately after the last dilution step the turbidity of the three consecutive dilution steps were measured with a nephelometer. Dilution was done in triplicate for each compound to exclude occasional errors. Based on the turbidity measurements a ranking is performed into 3 classes. Compounds with high solubility obtained a score of 3 and for this compounds the first dilution is clear. Compounds with medium solubility obtained a score of 2. For these compounds the first dilution is unclear and the second dilution is clear. […] The solubility of 14 compounds was measured.

[4] = not given; remark: listed apart in the source

| Enzyme activity pIC50 [1] | melting point [°C] | IC50 [2] [µM] | solubility [3] [µM] | Cellular activity pIC50 [2] | % metabolism ([4]; human, 15 min, 5 μM) [%] | Structure (SMILES) | % metabolism ([4]; after 15 min of incubation with active microsomes (1 mg/ml), compound 5 μM) [%] |
| --- | --- | --- | --- | --- | --- | --- | --- |
| 7.314 | 227 | 1.45 | < 75.8 |  |  | O=C(NO)c1cnc(NC2CCCN(S(=O)(=O)c3ccc(-c4ccccc4)cc3)CC2)nc1 (stereo not shown) [Co. No. 4] |  |
|  |  |  |  |  |  | CCCO [propanol] | 25 |
| 7.676 | 160 | 2.45 | > 454 |  |  | O=C(NO)c1ccc(NC2CCN(S(=O)(=O)c3ccc4ccccc4c3)CC2)nc1 [Co. No. 1] |  |
| 7.077 |  |  |  | 5.201 |  | O=C(NO)c1cnc(NC2CCN(S(=O)(=O)c3ccc(-c4ccccc4)cc3)CC2)nc1 [compound 14] |  |
| 7.161 | 226 | 2.15 | > 454 |  |  | O=C(NO)c1cnc(NCC2CN(S(=O)(=O)c3ccc4ccccc4c3)CCO2)nc1 (stereo not shown) [Co. No. 9] |  |
|  | 115 |  |  |  |  | O=C(NO)c1ccc(NC2CCCN(S(=O)(=O)c3ccc4c(c3)CCCC4)CC2)nc1 (stereo not shown) (hydrate or solvate) [Co. No. 6] |  |
|  | 115 |  |  |  |  | O=C(NO)c1ccc(NC2CCCN(S(=O)(=O)c3ccc(-c4ccccc4)cc3)CC2)nc1 (stereo not shown) (hydrate or solvate) [Co. No. 2] |  |
| 7.23 | 137 | 1.9 | < 75.8 |  |  | O=C(NO)c1cnc(NCC2CCCN(S(=O)(=O)c3ccc4ccccc4c3)C2)nc1 (stereo not shown) [Co. No. 8] |  |
| 7.306 | 140 | 3.12 | 75.8 to 454 (≈ 33.5 to 201 µg/mL) |  |  | O=C(NO)c1cnc(NC2CCCN(S(=O)(=O)c3ccc4ccccc4c3)CC2)nc1 (stereo not shown) [Co. No. 3] |  |
| 7.408 | 240 | 7.78 | < 75.8 |  |  | O=C(NO)c1cnc(NCC2CCN(S(=O)(=O)c3ccc4ccccc4c3)CC2)nc1 [Co. No. 7] |  |
| 6.871 |  | 1.57 | < 75.8 |  |  | O=C(NO)c1ccc(NC2CCCN(S(=O)(=O)c3ccc(-c4ccccc4)cc3)CC2)nc1 (stereo not shown) [Co. No. 2] |  |
| 6.853 |  | 4.52 | 75.8 to 454 (≈ 33.7 to 202 µg/mL) |  |  | O=C(NO)c1ccc(NC2CCCN(S(=O)(=O)c3ccc4c(c3)CCCC4)CC2)nc1 (stereo not shown) [Co. No. 6] |  |
| 7.525 | 256 | 3.37 | > 454 |  |  | O=C(NO)c1cnc(NC2CCN(S(=O)(=O)c3ccc4ccccc4c3)CC2)nc1 [Co. No. 5] |  |
|  |  |  |  |  | 45 | COc1cc(N)c(Cl)cc1C(=O)NC1CCN(CCCOc2ccc(F)cc2)CC1OC (stereo not shown) [Cisapride] |  |
